Experimental data reported in patent publication US12503452B2 (Curza Global, LLC, priority 2019, dated 2025).

Experiments:
[1] = target: Rabbit Reticulocyte Lysate (eukaryotic protein synthesis); assay: Rabbit reticulocyte lysate luciferase assay (inhibition of eukaryotic protein synthesis); type: biochemical; settings: class by IC50 or % inhibition @ 1 μM, read-out: Rabbit reticulocyte IC50 (μM/% inhib.)
In short: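 Compounds were tested in 8-point 2-fold dilution series for blocking luciferase synthesis in nuclease-treated rabbit reticulocyte lysate (30° C., 90 minutes). Luminescence read-out, corrected by no-RNA background, was expressed as % inhibition against water-only reactions.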

A. baumannii (Ab) = assay: Broth microdilution minimum inhibitory concentration (MIC); type: cell-based; settings: Acinetobacter baumannii; A. baumannii; growth medium with sodium bicarbonate; read-out: Ab + bicarb MIC
In short: (§1)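 MICs were run in triplicate per CLSI microdilution (modified, 8 dilution steps), inoculating 5×10^4 CFU/well prepared from colonies grown at 35±2° C to 0.5 McFarland. Media: CAMHB alone, with 6.25 or 25 mM final sodium bicarbonate, or with 0–50% heat-inactivated human serum.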

P. aeruginosa (Pa) = assay: as above; type: cell-based; settings: Pseudomonas aeruginosa, P. aeruginosa; growth medium with sodium bicarbonate; read-out: Pa MIC + bicarb
In short: as §1

S. aureus (Sa) = assay: as above; type: cell-based; settings: Staphylococcus aureus, S. aureus; growth medium with sodium bicarbonate; read-out: Sa + bicarb MIC
In short: as §1

E. coli (Ec) = assay: as above; type: cell-based; settings: Escherichia coli, E. coli; growth medium with sodium bicarbonate; read-out: E. coli + bicarb MIC
In short: as §1

E. faecalis (Ef) = assay: as above; type: cell-based; settings: Enterococcus faecalis, E. faecalis; growth medium with sodium bicarbonate; read-out: Ef + bicarb MIC
In short: as §1

[2] = test system: E. coli S30 extract (bacterial protein synthesis); assay: E. coli S30 extract coupled transcription-translation luciferase assay (inhibition of bacterial protein synthesis); type: biochemical; settings: class by IC50 or % inhibition @ 1 μM, read-out: S30 IC50 (μM/% inhib.)
In short: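 Luminescent read-out of luciferase made from pBESTluc DNA by E. coli S30 extract after 1 h at 37 °C with compound in an 8-point 2-fold series. Background came from no-DNA reactions. Percent inhibition was calculated against water-only controls.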

| Compound | IC50 [1] [µM] | MIC (A. baumannii (Ab)) [µg/mL] | MIC (P. aeruginosa (Pa)) [µg/mL] | MIC (S. aureus (Sa)) [µg/mL] | MIC (E. coli (Ec)) [µg/mL] | MIC (E. faecalis (Ef)) [µg/mL] | IC50 [2] [µM] |
| --- | --- | --- | --- | --- | --- | --- | --- |
| CC(C)(N)C(=O)N1CCN(C(=O)Nc2ccn(-c3ccc(CN4CC(O)(CCN)C4)cc3)c(=O)n2)CC1 [Compound 205] | > 1 | > 32 | > 32 | 8 to 32 | < 8 | > 32 | < 0.5 |
| CC(C)(N)C(=O)N1CCN(C(=O)Nc2ccn(-c3ccc(CN4CC[C@@H](N)[C@@H](F)C4)cc3)c(=O)n2)CC1 [Compound 209] | > 1 | > 32 | > 32 | > 32 | < 8 | > 32 | > 1 |
| C[C@@H]1CN(Cc2ccc(-n3ccc(NC(=O)N4CCN(C(=O)C(C)(C)N)CC4)nc3=O)cc2)CC[C@H]1N [Compound 210] | > 1 | > 32 | > 32 | < 8 | < 8 | < 8 | < 0.5 |
| C[C@H]1CN(Cc2ccc(-n3ccc(NC(=O)N4CCN(C(=O)C(C)(C)N)CC4)nc3=O)cc2)CC[C@H]1N [Compound 211] | > 1 | > 32 | > 32 | < 8 | < 8 | 8 to 32 | 0.5 to 1 |
| CC[C@H]1CN(Cc2ccc(-n3ccc(NC(=O)N4CCN(C(=O)C(C)(C)N)CC4)nc3=O)cc2)CC[C@H]1N [Compound 212] | > 1 | > 32 | > 32 | < 8 | < 8 | < 8 | 0.5 to 1 |
| C[C@@H](N)C1CCN(Cc2ccc(-n3ccc(NC(=O)N4CCN(C(=O)C(C)(C)N)CC4)nc3=O)cc2)CC1 [Compound 219] | > 1 | > 32 | > 32 | < 8 | < 8 | 8 to 32 | 0.5 to 1 |
| C[C@H](N)C1CCN(Cc2ccc(-n3ccc(NC(=O)N4CCN(C(=O)C(C)(C)N)CC4)nc3=O)cc2)CC1 [Compound 220] | > 1 | 8 to 32 | > 32 | < 8 | < 8 | 8 to 32 | < 0.5 |
| CC(C)(N)C(=O)N1CCN(C(=O)Nc2ccn(-c3ccc(CN4CC[C@@H](N)[C@H](CO)C4)cc3)c(=O)n2)CC1 [Compound 227] | > 1 | > 32 | > 32 | > 32 | 8 to 32 | > 32 | > 1 |
| CC(C)(N)CC1(F)CCN(C(=O)Nc2ccn(-c3ccc(CN4CCC(N)CC4)cc3)c(=O)n2)CC1 [Compound 233] | > 1 | > 32 | > 32 | < 8 | < 8 | > 32 | > 1 |
| CC(C)(N)C(=O)N1CCN(C(=O)Nc2ccn(-c3ccc(CN4CC[C@H](CN)C4)cc3)c(=O)n2)CC1 [Compound 242] | > 1 | > 32 | > 32 | < 8 | < 8 | 8 to 32 | < 0.5 |
| CC(C)(N)C(=O)N1CCN(C(=O)Nc2ccn(-c3ccc(CN4CC[C@@H](CN)C4)cc3)c(=O)n2)CC1 [Compound 243] | > 1 | > 32 | > 32 | < 8 | < 8 | 8 to 32 | < 0.5 |
| CC(C)(N)C(=O)N1CCN(C(=O)Nc2ccn(-c3ccc(CN4CCC(CN)CC4)cc3)c(=O)n2)CC1 [Compound 245] | > 1 | > 32 | > 32 | < 8 | < 8 | < 8 | < 0.5 |
| CC(N)C1CCN(Cc2ccc(-n3ccc(NC(=O)N4CCN(C(=O)C(C)(C)N)CC4)nc3=O)cc2)CC1 (stereo not drawn) [Compound 247] | > 1 | > 32 | > 32 | < 8 | < 8 | < 8 | < 0.5 |
| CC1(CN)CCN(Cc2ccc(-n3ccc(NC(=O)N4CCN(C(=O)C(C)(C)N)CC4)nc3=O)cc2)CC1 [Compound 249] | > 1 | > 32 | > 32 | < 8 | < 8 | 8 to 32 | < 0.5 |
| CC1CN(Cc2ccc(-n3ccc(NC(=O)N4CCN(C(=O)C(C)(C)N)CC4)nc3=O)cc2)CCC1N (stereo not drawn) [Compound 251] | > 1 | > 32 | > 32 | < 8 | < 8 | < 8 | < 0.5 |
